Experimental data from ChEMBL document CHEMBL3779884, “Anti-Staphylococcal Biofilm Effects of Human Cathelicidin Peptides” (ACS Med Chem Lett, 2016).
Converted amounts (≈) assume the structure as drawn. The source made the active and inactive calls. The rule behind the calls is not given here. Where a SMILES comes first, the peptide text is derived from it.

Columns and labels:
[1] = tested on: Staphylococcus aureus; assay: Antibacterial activity against Staphylococcus aureus Newman incubated for 20 hrs by microplate reader analysis; type: functional
[2] = tested on: Staphylococcus aureus; assay: Antibiofilm activity against Staphylococcus aureus Mu50 assessed as 24 hr preformed biofilm disruption at 3.1 to 25 uM incubated for 24 hrs by XTT assay; type: functional, organism-based
[3] = tested on: Staphylococcus aureus; assay: Antibiofilm activity against Staphylococcus aureus clinical isolate USA300 assessed as 24 hr preformed biofilm disruption at 3.1 to 25 uM incubated for 24 hrs by XTT assay; type: functional, organism-based
[4] = tested on: Staphylococcus aureus; assay: Antibiofilm activity against Staphylococcus aureus clinical isolate USA300 assessed as inhibition of bacterial attachment at 3.1 to 25 uM incubated for 1 hr by XTT/PMS assay; type: functional, organism-based
[5] = tested on: Staphylococcus aureus; assay: Antibiofilm activity against Staphylococcus aureus clinical isolate USA400 assessed as 24 hr preformed biofilm disruption at 3.1 to 25 uM incubated for 24 hrs by XTT assay; type: functional, organism-based
[6] = tested on: Staphylococcus aureus; assay: Inhibition of biofilm formation in Staphylococcus aureus clinical isolate USA300 at 6.2 to 25 uM incubated for 24 hrs by XTT/PMS assay; type: functional, organism-based
[7] = tested on: Staphylococcus aureus; assay: Antibacterial activity against Staphylococcus aureus Mu50 incubated for 20 hrs by microplate reader analysis; type: functional; conditions: Mu50, 20 h
[8] = tested on: Staphylococcus aureus; assay: Antibacterial activity against Staphylococcus aureus clinical isolate USA300 incubated for 20 hrs by microplate reader analysis; type: functional; conditions: isolate USA300, 20 h
[9] = tested on: Staphylococcus aureus; assay: Antibacterial activity against Staphylococcus aureus clinical isolate UAMS-1 incubated for 20 hrs by microplate reader analysis; type: functional; conditions: isolate UAMS-1, 20 h
[10] = tested on: Staphylococcus aureus; assay: Antibacterial activity against Staphylococcus aureus clinical isolate USA400 incubated for 20 hrs by microplate reader analysis; type: functional; conditions: isolate USA400, 20 h
[11] = tested on: Staphylococcus aureus; assay: Inhibition of biofilm formation in Staphylococcus aureus clinical isolate USA300 at 3.1 uM incubated for 24 hrs by XTT/PMS assay relative to control; type: functional; conditions: isolate USA300, 24 h
[12] = tested on: Staphylococcus aureus; assay: Antibiofilm activity against Staphylococcus aureus clinical isolate UAMS-1 assessed as 24 hr preformed biofilm disruption at 3.1 to 25 uM incubated for 24 hrs by XTT assay; type: functional, organism-based
[13] = tested on: Staphylococcus aureus; assay: Antibacterial activity against Staphylococcus aureus clinical isolate USA200 incubated for 20 hrs by microplate reader analysis; type: functional; conditions: isolate USA200, 20 h
[14] = tested on: Staphylococcus aureus; assay: Antibiofilm activity against Staphylococcus aureus clinical isolate USA200 assessed as 24 hr preformed biofilm disruption at 3.1 to 25 uM incubated for 24 hrs by XTT assay; type: functional, organism-based
[15] = tested on: Staphylococcus aureus; assay: Antibiofilm activity against Staphylococcus aureus Newman assessed as 24 hr preformed biofilm disruption at 3.1 to 25 uM incubated for 24 hrs by XTT assay; type: functional, organism-based
[16] = tested on: Staphylococcus aureus; assay: Antibiofilm activity against Staphylococcus aureus clinical isolate USA300 assessed as inhibition of bacterial attachment at 25 uM incubated for 1 hr by XTT/PMS assay; type: functional, organism-based
[17] = tested on: Staphylococcus aureus; assay: Inhibition of biofilm formation in Staphylococcus aureus clinical isolate USA300 at 3.1 to 25 uM incubated for 24 hrs by XTT/PMS assay; type: functional, organism-based

SMILES	MIC [1]	Activity [2]	Activity [3]	inhibition [4]	Activity [5]	inhibition [6]	MIC [7]	MIC [8]	MIC [9]	MIC [10]	inhibition at 3.1 µM [11]	Activity [12]	MIC [13]	Activity [14]	Activity [15]	inhibition [16]	inhibition [17]
CC[C@H](C)[C@H](NC(=O)[C@H](CCCCN)NC(=O)[C@H](CCC(=O)O)NC(=O)[C@H](CCCCN)NC(=O)[C@H](CO)NC(=O)[C@H](CCCCN)NC(=O)[C@H](CCCNC(=N)N)NC(=O)[C@H](Cc1ccccc1)NC(=O)[C@H](Cc1ccccc1)NC(=O)[C@H](CC(=O)O)NC(=O)CNC(=O)[C@H](CC(C)C)NC(=O)[C@@H](N)CC(C)C)C(=O)NCC(=O)N[C@@H](CCCCN)C(=O)N[C@@H](CCC(=O)O)C(=O)N[C@@H](Cc1ccccc1)C(=O)N[C@@H](CCCCN)C(=O)N[C@@H](CCCNC(=N)N)C(=O)N[C@H](C(=O)N[C@H](C(=O)N[C@@H](CCC(N)=O)C(=O)N[C@@H](CCCNC(=N)N)C(=O)N[C@H](C(=O)N[C@@H](CCCCN)C(=O)N[C@@H](CC(=O)O)C(=O)N[C@@H](Cc1ccccc1)C(=O)N[C@@H](CC(C)C)C(=O)N[C@@H](CCCNC(=N)N)C(=O)N[C@@H](CC(N)=O)C(=O)N[C@@H](CC(C)C)C(=O)N[C@H](C(=O)N1CCC[C@H]1C(=O)N[C@@H](CCCNC(=N)N)C(=O)N[C@H](C(=O)N[C@@H](CCC(=O)O)C(=O)N[C@@H](CO)C(=O)O)[C@@H](C)O)C(C)C)[C@@H](C)CC)C(C)C)[C@@H](C)CC [CATHELICIDIN]	> 50 µM	inactive	inactive	inactive	inactive	inactive	> 50 µM	12.5 µM (≈ 56.2 µg/mL)	> 50 µM	6.25 µM (≈ 28.1 µg/mL)	50%	inactive	> 50 µM	inactive	inactive		
CC[C@H](C)[C@H](NC(=O)[C@H](CCCNC(=N)N)NC(=O)[C@H](CCC(N)=O)NC(=O)[C@@H](NC(=O)[C@@H](NC(=O)[C@@H](N)CCCNC(=N)N)[C@@H](C)CC)C(C)C)C(=O)N[C@@H](CCCCN)C(=O)N[C@@H](CC(=O)O)C(=O)N[C@@H](Cc1ccccc1)C(=O)N[C@@H](CC(C)C)C(=O)O (H-RIVQRIKDFL-OH)	> 50 µM	inactive	inactive		inactive		> 50 µM	> 50 µM	> 50 µM	> 50 µM		inactive	> 50 µM	inactive	inactive	Active	inactive
